Usually pIC50 stands for the negative decadic logarithm of the IC50, by convention in mol/L. The low end stands for a large IC50, the high end for a small IC50.

The assay has as its target T1, Serine/threonine-protein kinase 4 (Human, UniProt Q13043).
T1 sequence (Q13043 whole entry): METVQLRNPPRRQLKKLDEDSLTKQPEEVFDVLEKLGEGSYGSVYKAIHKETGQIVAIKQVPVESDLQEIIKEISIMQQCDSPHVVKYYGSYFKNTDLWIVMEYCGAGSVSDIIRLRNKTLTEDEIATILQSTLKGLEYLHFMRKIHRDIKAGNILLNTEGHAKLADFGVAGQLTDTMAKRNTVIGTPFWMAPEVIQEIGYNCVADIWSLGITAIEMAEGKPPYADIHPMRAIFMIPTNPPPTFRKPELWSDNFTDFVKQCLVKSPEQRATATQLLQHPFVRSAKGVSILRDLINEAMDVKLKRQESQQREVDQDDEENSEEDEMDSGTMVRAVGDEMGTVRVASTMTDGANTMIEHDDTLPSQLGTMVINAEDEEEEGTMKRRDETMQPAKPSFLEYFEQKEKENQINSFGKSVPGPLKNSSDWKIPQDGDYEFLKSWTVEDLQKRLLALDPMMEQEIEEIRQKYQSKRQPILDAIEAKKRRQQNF
In words: Biochemical Assay. The method, then:
Biochemical IC50s were measured at Invitrogen using Z-lyte technology. Briefly, for STK4, the 2×STK4 (MST1)/Ser/Thr 07 mixture was prepared in 50 mM HEPES pH 7.5, 0.01% BRIJ35, 10 mM MgCl2, 1 mM EGTA. The final 10 μL Kinase Reaction consisted of 6.25-160 ng STK4 (MST1) and 2 μM Ser/Thr 07 in 50 mM HEPES pH 7.5, 0.01% BRIJ-35, 10 mM MgCl2, 1 mM EGTA. After the 1 hour Kinase Reaction incubation, 5 μL of a 1:100000 dilution of Development Reagent A was added. Compounds were screened in a 10 point titration with 3-fold serial dilutions starting at a concentration of 10 μM. The biochemical IC50s against other STK family members were measured similarly. The ATP concentration used matched the Km for each kinase.

pIC50: −log10 of the molar value. Bounds are passed on as bounds.

`Nc1ncc(-c2cccc3sccc23)cc1-c1ccc2c(c1)CCNC2=O` [US10710978, Compound I-15]: the negative logarithm of the IC50 (pIC50) is above 7.40.

`Cc1cc(S(=O)(=O)N(C)C2CC2)ccc1-c1cnc(N)c(-c2ccc3c(c2)CCNC3=O)c1` [US10710978, Compound I-46] gave a pIC50 above 7.40.
